Activity calls are given as the source filed them. The calls are words filed in the database; no cut-off is given here.
System: RAW264.7
Experiment: Antiinflammatory activity in mouse RAW264.7 cells assessed as decrease in LPS-induced NO production at 10 uM preincubated for 1 hr followed by LPS treatment for 24 hrs by Griess reagent based assay
Type: functional, cell-based
Conditions: time 25.0 hrs

SMILES	Activity
C=CCOc1ccc(/C=C/c2cc(OC)cc(OC)c2/C=C/C(=O)c2cccc(Br)c2)cc1	Active
CCCOc1ccc(/C=C/c2cc(OC)cc(OC)c2/C=C/C(=O)c2cccc(C)c2)cc1	Active
CCC(C)Oc1ccc(/C=C/c2cc(OC)cc(OC)c2C2CC(C)=NN2C(C)=O)cc1 (stereo not drawn)	Active
C=CCOc1ccc(/C=C/c2cc(OC)cc(OC)c2/C=C/C(=O)c2cccc(OC)c2)cc1	Active
C=CCOc1ccc(/C=C/c2cc(OC)cc(OC)c2/C=C/C(=O)c2ccccc2)cc1	Active
COc1cc(/C=C/c2ccc(OCCOc3ccccc3)cc2)c(C2CC(C)=NN2C(C)=O)c(OC)c1 (stereo not drawn)	Active
COCCCCOc1ccc(/C=C/c2cc(OC)cc(OC)c2C2CC(C)=NN2C(C)=O)cc1 (stereo not drawn)	Active
CCCCOc1ccc(/C=C/c2cc(OC)cc(OC)c2/C=C/C(=O)c2cccc(C)c2)cc1	Active
C=CCOc1ccc(/C=C/c2cc(OC)cc(OC)c2C2CC(C)=NN2C(C)=O)cc1 (stereo not drawn)	Active
C=CCOc1ccc(/C=C/c2cc(OC)cc(OC)c2/C=C/C(=O)c2cccc(C)c2)cc1	Active
CCCCOc1ccc(/C=C/c2cc(OC)cc(OC)c2/C=C/C(=O)c2cccc(Br)c2)cc1	Active
COCCOc1ccc(/C=C/c2cc(OC)cc(OC)c2/C=C/C(=O)c2cccc(OC)c2)cc1	Active
COCCOc1ccc(/C=C/c2cc(OC)cc(OC)c2/C=C/C(=O)c2ccccc2)cc1	Active
COCCCCOc1ccc(/C=C/c2cc(OC)cc(OC)c2/C=C/C(=O)c2cccc(C)c2)cc1	Active
COc1cc(/C=C/c2ccc(OCC3CCCCC3)cc2)c(C2CC(C)=NN2C(C)=O)c(OC)c1 (stereo not drawn)	Active
CCCOc1ccc(/C=C/c2cc(OC)cc(OC)c2C2CC(C)=NN2C(C)=O)cc1 (stereo not drawn)	Active
COc1cc(/C=C/c2ccc(OCc3ccc(F)cc3)cc2)c(/C=C/C(=O)c2cccc(C)c2)c(OC)c1	Active
COCCOc1ccc(/C=C/c2cc(OC)cc(OC)c2/C=C/C(=O)c2cccc(C)c2)cc1	Active
